Structures can show the parent of a compound that is named as a salt.

The results in this text go back to US11628169B2, “Therapeutic drug for motor complications in Parkinson's disease” (Sumitomo Pharma Co., Ltd., priority 2020, dated 2023).

What all share (assay type): in vivo
In assay [1] the test system is rat Vogel conflict test model. Briefly: Anxiolytic action in rat Vogel conflict test model. To be noted: effect on PD-LID evaluated in 6-OHDA-lesioned rats. As for the experimental part: The anxiolytic action was evaluated using a rat Vogel conflict test model, and the effect on PD-LID was evaluated in 6-0HDA-lesioned rats.
The subject of assay [2] is PD-LID rat model. Briefly: Dyskinesia-like symptom (AIMs) score in PD-LID rat model. Conditions: for total dyskinesia-like symptom (AIMs) score in 3 hours: levodopa 5 min later, vs solvent group. The protocol:
To make a PD-LID rat model, a mixture of levodopa methyl ester hydrochloride (6 mg/kg; Sigma-Aldrich) dissolved in saline and benserazide hydrochloride (15 mg/kg; Sigma-Aldrich) (hereinafter, also referred to as “levodopa containing solution”) was intraperitoneally administered once daily to 6-OHDA-lesioned rats. The levodopa containing solution was repeatedly administered for 3 weeks or longer to observe and evaluate the behavior. The behavior was observed and evaluated in a transparent acrylic cage for 1 minute every 20 minutes after 20 minutes from the intraperitoneal administration of the levodopa containing solution, up until after 3 hours from administration. […] The sum of the scores for Limb AIMs, Axial AIMs, and Orolingual AIMs in 3 hours was used as the total dyskinesia-like symptom (AIMs) score. Individuals with a total AIMs score of less than 10 were excluded from the test as not manifesting a dyskinesia-like symptom. The behavior was observed and evaluated before the drug evaluation date. The rats were assigned to each dosing group by using the 3 hour total dyskinesia-like symptom (AIMs) score, Locomotive behavior score, and rat body weight as indicators, which were used for evaluation of drugs. […]
After 4 hours from application, a levodopa containing solution was intraperitoneally administered to observe and evaluate the behavior. Individuals with 50% or more of the tape agent coming off during the test were excluded from analysis. […]
As in Example 2, a levodopa containing solution was repeated administered to 6-0HDA-lesioned rats for 3 weeks or longer to observe and evaluate the behavior. The behavior was observed and evaluated before the drug evaluation date. The rats were assigned to each dosing group by using the 3 hour dyskinesia-like symptom (AIMs) score, Locomotive behavior score, and rat body weight as indicators, which were used for evaluation of drugs. However, individuals with a total AIMs score of less than 10 were excluded from the test as lacking manifestation of a dyskinesia-like symptom. Individuals with a body weight deviating 10% or more from the mean body weight were also excluded from the test to minimize variation in the dosage for each individual. […]
After 4 hours, a levodopa containing solution was administered to observe and evaluate the behavior. […]
The prepared solution was used after injection into an ALZET® Osmotic Pump MODEL 2ML2 (4.53 μL/hour; DURECT) for releasing a drug solution at a stable rate for 2 weeks. […]
The behavior was observed and evaluated using the same method as Example 2. […] After 5 minutes, a levodopa containing solution was intraperitoneally administered, and the behavior was observed and evaluated. The results in the drawings are indicated in terms of mean value […] standard error. The test results were statistically analyzed by comparison with the solvent administration group by Steel test using the total dyskinesia-like symptom (AIMs) score in 3 hours and total dyskinesia-like symptom score in 100 to 180 minutes as parameters. * indicates p<0.05, meaning that there is a significant difference.
The behavior was observed and evaluated using the same method in Example 2. […] The test results were statistically analyzed by comparison with the solvent administration group by Steel test by using the total dyskinesia-like symptom (AIMs) score in 3 hours and total dyskinesia-like symptom score in 100 to 180 minutes as parameters.

For assay [3], the system named is PD-LID rat model. The description is as above.
In assay [4] the test system is PD-LID rat model. Briefly: ON score and ON time without dyskinesia in PD-LID rat model. As for the experimental part:
To make a PD-LID rat model, a mixture of levodopa methyl ester hydrochloride (6 mg/kg; Sigma-Aldrich) dissolved in saline and benserazide hydrochloride (15 mg/kg; Sigma-Aldrich) (hereinafter, also referred to as “levodopa containing solution”) was intraperitoneally administered once daily to 6-OHDA-lesioned rats. The levodopa containing solution was repeatedly administered for 3 weeks or longer to observe and evaluate the behavior. The behavior was observed and evaluated in a transparent acrylic cage for 1 minute every 20 minutes after 20 minutes from the intraperitoneal administration of the levodopa containing solution, up until after 3 hours from administration. […] Individuals with a total AIMs score of less than 10 were excluded from the test as not manifesting a dyskinesia-like symptom. The behavior was observed and evaluated before the drug evaluation date. […] For an indicator of dyskinesia behavior, the sum of the Limb AIMs, Axial AIMs, and Orolingual AIMs at each evaluation point was used as the AIMs score. For the rotational behavior (ON score), Locomotive behavior at each evaluation point was used as an indicator. […] For ON time without dyskinesia, the period during which the AIMs score is 0 and Locomotive behavior is 1 or greater at each evaluation point was added. Duration of action of levodopa without a dyskinesia symptom (ON time without dyskinesia) refers to the aggregate time with no dyskinesia during the antiparkinsonian action effective time, i.e., “ON-time”, and defined as the time during which the dyskinesia symptom (AIMs) score is 0 and the rotational behavior (Locomotive behavior) score is 1 or greater at each evaluation point after levodopa administration. […] After 5 minutes, a levodopa containing solution was intraperitoneally administered, and the behavior was observed and evaluated. The results in the drawings are indicated in terms of mean value±standard error. […] For evaluation of a tape agent, the abdominal regions of the rats were shaved prior to the evaluation date. […] After 4 hours from application, a levodopa containing solution was intraperitoneally administered to observe and evaluation the behavior. The results in the drawings are indicated in terms of mean value±standard error. Individuals with 50% or more of the tape agent coming off during the test were excluded from analysis.

Setting [5] is: continuous subcutaneous infusion 1.25 mg/kg/hour, vs solvent.
[6] abbreviates: oral 6.7 mg/kg as free form (10 mg/kg as citrate).
Setting [7] is: oral 67 mg/kg as free form (100 mg/kg as citrate).
[8] abbreviates: transdermal condition 1, 37 mg/kg as free form.
Setting [9] is: transdermal condition 2 (stripping), 45 mg/kg as free form.

`O=C1[C@@H]2[C@H]3CC[C@H](C3)[C@@H]2C(=O)N1CCCCN1CCN(c2ncccn2)CC1` [tandospirone, (1R,2S,3R,4S)—N-[4-{4-(pyrimidine-2-yl)piperadine-1-yl}butyl]-2,3-bicyclo[2.2.1]heptanedicarboximide]: the “anxiolytic action compared with effect on PD-LID” value in assay [1] is recorded as “exerted at the same dosage”. Moreover, the “total dyskinesia-like symptom score in 100 to 180 minutes” value in assay [2] (setting [5]) is “significant improvement”. The “dyskinesia-like symptoms (total AIMs score in 3 hours)” value is on record as “dose-dependently improved dyskinesia-like symptoms” in assay [2] (continuous subcutaneous infusion 0.05, 0.25, 1.25 mg/kg/hour, levodopa 4 hours after pump implant, vs solvent) and “significant improvement” in assay [3] (setting [5]). Further, the “(i) Degree of improvement in indicator of dyskinesia symptom (total AIMs score in 3 hours, solvent minus tandospirone group)” value in assay [3] (setting [6]), in assay [3] (oral 20 mg/kg as free form (30 mg/kg as citrate)) and in assay [3] (setting [7]) was “Ineffective” each time. Moreover, the “(ii) Indicator of rebound symptom of dyskinesia (total dyskinesia-like symptom score in 100 to 180 minutes, solvent minus tandospirone group)” value is “No effect” in assay [3] (setting [6]); −9.1 in assay [3] (oral 20 mg/kg as free form (30 mg/kg as citrate), experiment printed as (FIG. 7)); −8.5 in assay [3] (oral 20 mg/kg as free form (30 mg/kg as citrate), experiment printed as (FIGS. 8A-8B)); −10.1 in assay [3] (setting [7]). The “(i) Degree of improvement in indicator of dyskinesia symptom (total AIMs score in 3 hours, placebo minus tandospirone group)” value was determined as 17.7 in assay [3] (setting [8]) and 27.1 in assay [3] (setting [9]). Further, the “(ii) Indicator of rebound symptom of dyskinesia (total dyskinesia-like symptom score in 100 to 180 minutes, placebo minus tandospirone group)” value in assay [3] (setting [8]) and in assay [3] (setting [9]) was “No effect” each time. Also, the “(iii) Duration of action of levodopa without dyskinesia symptom (ON time without dyskinesia)” value in assay [4] (oral 6.7 mg/kg as free form (10 mg/kg as citrate), vs solvent group) is given as “Ineffective”; in assay [4] (oral 20 mg/kg as free form (30 mg/kg as citrate), vs solvent group) it was “Ineffective”; in assay [4] (transdermal condition 1 (no stripping), 37 mg/kg as free form, 180 min, prolongation vs placebo tape), 21.7 min; in assay [4] (transdermal condition 2 (stripping), 45 mg/kg as free form, 180 min, prolongation vs placebo tape), 77.8 min.

As to `c1cnc(N2CCNCC2)nc1` [1-PP dihydrochloride, 1-(2-Pyrimidyl)piperazine], the “total dyskinesia-like symptom (AIMs) score in 3 hours” value in assay [2] (subcutaneous 10 mg/kg) and in assay [2] (subcutaneous 30 mg/kg) was “significant change in the total AIMs score was not found” throughout. In addition, the “total dyskinesia-like symptom score in 100 to 180 minutes” value in assay [3] (subcutaneous 10 or 30 mg/kg, vs solvent group) is given as “increasing trend in the total AIMs score, albeit not significant”.
